Where a SMILES comes first, the peptide text is derived from it. The star is where a group is joined. X1 = CCCCCCCCCCCCCCNC(=O)OC[C@H](C*)OC(=O)NCCCCCCCCCCCCCC; Palmitoyl = CCCCCCCCCCCCCCCC(=O)*
Tests used:
splenic B cells = experiment: Total IgM production by B cells in vitro; assay type: cell-based, mice; conditions: 200 nM, 3 or 5 days, ELISA; vs Pam3
Source text: Splenic DCs were purified as described previously ([37]). CD8^+ cDCs expanded by B16-Flt3L inoculation were enriched, and then CD8^+ cDCs were positively sorted by MACS technology (Miltenyi Biotec). Splenic B cells were purified through negative selection by Streptavidin-MicroBeads (Miltenyi Biotec 130-048-102) combined with different antibodies cocktail to exclude non-B cells. The antibodies cocktail was composed of biotinylated antibodies against CD4 (T cells and DCs) (eBioscience, clone GK1.5), CD8 (T cells and DCs) (eBioscience, clone 53-6.7), CD43 (T cells, monocytes, granulocytes) (eBioscience, clone eBioR2/60), and Ter119 (erythrocytes) (eBioscience, clone TER119). B cells were further purified through MACS LS column (Miltenyi Biotec 130-042-401).
Splenic DCs (5 × 10^5 cells/mL) were stimulated by Pam3 (200 nM), SUP3 (200 nM), or CpG ODN 1668 (20 nM; Adipogen IAX-200-001) in the GM-CSF (20 ng/mL) supplemented medium for indicated periods. […] Cytokines (IL-6, eBioscience 88-7064; TNFα, eBioscience 88-7324; IL-12p40, BioLegend 431604), chemokine (MIP1α, R&D Systems DY450-05), and total IgM (eBioscience, 88-50470) were quantified by ELISA kits following the instructions of manufacturers.
Figure 7 SUP3 promoted stronger B cell activation in vitro. […] (B) Supernatants were harvested 3 or 5 days post-stimulation, and total IgM in the supernatant was determined by ELISA. […]

CD11b^+ cDCs = experiment: Antigen presentation by CD11b+ cDCs to OT-II CD4+ T cells in vitro; assay type: cell-based, mice; conditions: CD11b+ cDCs stimulated with 200 nM
Method: Antigen presentation assays were performed as previously described ([38]). Briefly, ovalbumin (OVA) (10 µg/mL; Sigma A7641) pulsed cDCs were stimulated with or without TLR agonists for 4 h. OT-I CD8^+ T cells and OT-II CD4^+ T cells were purified and then labeled by carboxyfluorescein diacetate succinimidyl ester (CFSE) (1 µM; Molecular Probes C34554). CD8^+ cDCs were cocultured with OT-I CD8^+ T cells for 60 h, whereas CD11b^+ cDCs were cocultured with OT-II CD4^+ T cells for 96 h, both in the presence of granulocyte-macrophage colony-stimulating factor (GM-CSF) (20 ng/mL; Peprotech 315-03). Proliferated OT-I or OT-II T cells were defined as diluted CFSE signal analyzed by flow cytometry. The numbers of T cells were counted by AccuCheck counting beads (Molecular Probes PCB100). […] Cells were washed twice with cold medium and analyzed by flow cytometry.
Figure 5 SUP3 enhanced antigen presentation ability of CD11b^+ conventional dendritic cells (cDCs) and production of antibodies against thymus-dependent (TD) antigens. […] Three days after immunization, division of OT-II CD4^+ T cells from inguinal lymph nodes were analyzed by flow cytometry (B). Absolute numbers of proliferated OT-II CD4^+ T cells were calculated in (C). […] Cells were then thoroughly washed and cocultured with CFSE-stained OT-II CD4^+ T cells for 4 days and analyzed by flow cytometry. […]

For `CCCCCCCCCCCCCCCC(=O)N[C@@H](CSC[C@@H](COC(=O)NCCCCCCCCCCCCCC)OC(=O)NCCCCCCCCCCCCCC)C(=O)NCC(=O)N[C@@H](CCCCN)C(=O)N[C@@H](CCCCN)C(=O)N[C@@H](CCCCN)C(=O)O` [SUP3, (2S,5S,8S,14R,18R)-2,5,8-tris(4-aminobutyl)-4,7,10,13,21-pentaoxo-14-palmitamido-18-((tetradecylcarbamoyl)oxy)-20-oxa-16-thia-3,6,9,12,22-pentaazahexatriacontan-1-oic acid] (Palmitoyl-C(X1)GKKK-OH), the “antigen-independent production of IgM by B cells” value (splenic B cells) was “more” and the “OT-II CD4+ T cell proliferation in vitro” value (CD11b^+ cDCs) was “enhanced OT-II CD4^+ T cell proliferation”.

From article PMC5318439, “The Novel Toll-Like Receptor 2 Agonist SUP3 Enhances Antigen Presentation and T Cell Activation by Dendritic Cells” (Frontiers in Immunology, 2017)
